This note sets out measurements from patent publication US9409952B2, “Peptide-compound cyclization method” (Chugai Seiyaku Kabushiki Kaisha, priority 2011, dated 2016).

Positions of bridges follow the written chain, without caps; N, C: chain ends. Non-standard residues stand in square brackets, D forms with d. Residues, ends and D or L forms follow the SMILES beside them. *: point of attachment. Bip = N[C@@H](Cc1ccc(-c2ccccc2)cc1)C(=O)O; NMeF = CN[C@@H](Cc1ccccc1)C(=O)O; NMeI = CC[C@H](C)[C@H](NC)C(=O)O; NMeL = CN[C@@H](CC(C)C)C(=O)O; NMeA = CN[C@@H](C)C(=O)O; Piperidide = C1CCN(*)CC1; Sar = CNCC(=O)O; tBu = CC(C)(C)*

The nature of data set [1]: Serum stability test in mouse serum. As to conditions: both sexes, pH 7.4, two hours, read-out: Serum stability t1/2 (Mouse). The class given is in vitro ADME. The protocol:
(§1) The obtained compound was metabolically reacted at a concentration of 2 uM with mouse serum (male/female mixed, Valley Biomedical, USA) (adjusted to pH 7.4 with 33.5 mM HEPES buffer) for two hours. Deproteinization treatment with acetonitrile was provided over time, the amount of the remaining unchanged compound was analyzed using LC/MS, and the metabolic half-life (t1/2) was calculated. A microsome solution prepared at 0.5 mg protein/mL from mouse hepatic microsome and small intestinal microsome (male, XENOTECH, USA) using 100 mM phosphate buffer (pH 7.4) was metabolically reacted with the compound at a concentration of 1 uM for 30 minutes in the presence or absence of NADPH. Deproteinization treatment with acetonitrile was provided over time, the amount of the remaining unchanged compound was analyzed using LC/MS, and the hepatic-intrinsic clearance (CLh, int) and the small intestinal-intrinsic clearance (CLg, int) were calculated (Table 7). Such peptides were sufficiently slowly metabolized by hydrolysis with peptidases or the like in mouse sera and microsomes, contrary to peptides composed of natural amino acids having low lipophilicity.

The nature of data set [2]: Metabolic stability in mouse hepatic microsome. The class given is in vitro ADME. As to conditions: for Hepatic Microsome CLh, int (Mouse) In the absence of NADPH / microsomal CLint at 1 uM: 0.5 mg protein/mL, 1 uM, 30 minutes; for Hepatic Microsome CLh, int (Mouse) In the absence of NADPH: without NADPH; for microsomal CLint at 1 uM: male, mouse, liver microsomes, pH 7.4, with NADPH, read-out: Hepatic Microsome CLh, int (Mouse) In the presence of NADPH; for Mouse Hepatic Microsome CLh, int: Table 9, thioether versus sulfoxide. The protocol:
as §1
(§2) Metabolic stability tests were carried out in the same manner as shown in 2-1.

Data set [3] can be described thus: Metabolic stability in human hepatic microsome. The settings on record: human, microsomes, 1 uM, pH 7.4. Type of data set: in vitro ADME.
Data set [4] is described as follows: Metabolic stability in mouse small intestinal microsome. The class given is in vitro ADME. The protocol: as §1, §2
The nature of data set [5]: Stability of aminoacylated pdCpA in buffers and on storage (LC-MS). The class given is physicochemical. The settings on record: for % by LC-MS during StBu deprotection: 250 μM Compound 2n-A, 50 mM Tris-HCl pH 7, 10 mM DTT. The protocol:
The side chain StBu of pdCpA-Cys was deprotected using the precursor Compound 2n-A, and the following experiment was carried out to examine stability of the deprotected Compound 2e-A. The side chain was deprotected at room temperature under the conditions of 250 μM of Compound 2n-A, 50 mM Tris-HCl buffer, pH 7, and 10 mM DTT, and the time course of the deprotection was observed by LC-MS (SQD). The intended Compound 2e-A was not observed, and pdCpA resulting from hydrolysis of pdCpA-Cys was observed. After 5 minutes, Compound 2n-A was 51%, Compound 2e-A was 0%, and pdCpA was 49%. After 2 hours, deprotection was completed and Compound 2n-A was 0%, but Compound 2e-A was 0% and all hydrolized so that pdCpA was 100% (FIG. 13).
Stability of Compound 2n-A with the SH group of Cys protected was evaluated. Storage samples were prepared under five conditions as shown in the following Table 2 were prepared, respectively, and analyzed by LC-MS.
Stability of Compound 2n-B with the SH group of MeCys protected was also evaluated. Storage samples were prepared under four conditions as shown in the following Table 3 were prepared and analyzed by LC-MS.

For `CC[C@H](C)[C@H]1C(=O)N[C@@H](Cc2ccc(-c3ccccc3)cc2)C(=O)N[C@H](C(=O)N2CCCCC2)CSCC(=O)N(C)[C@@H](CC(C)C)C(=O)N[C@@H]([C@@H](C)O)C(=O)N(C)CC(=O)N(C)[C@@H](CC(C)C)C(=O)N[C@@H](CO)C(=O)N1C` [Compound P-104, Ac*-MeLeu-Thr-MeGly-MeLeu-Ser-MeIle-Bip-Cys*-piperidine] ({CH2CO}-[NMeL]T[Sar][NMeL]S[NMeI][Bip]C-Piperidide; thioether N-8), the half-life at 2 uM in data set [1] is over 60 h. In addition, in data set [2], the “Hepatic Microsome CLh, int (Mouse) In the absence of NADPH” value (“Hepatic Microsome CLh, int … of NADPH” for short) is 6.9 ul/min/mg Protein and the microsomal CLint at 1 uM is 106 µL/min/mg.

`CC[C@H](C)[C@H]1C(=O)N[C@H](C(=O)N2CCCCC2)CSCC(=O)N(C)[C@@H](C)C(=O)N[C@@H](Cc2ccccc2)C(=O)N(C)[C@@H](CC(C)C)C(=O)N[C@@H]([C@@H](C)O)C(=O)N(C)CC(=O)N(C)[C@@H](CC(C)C)C(=O)N[C@@H](COC(C)(C)C)C(=O)N1C` [Compound P-111, Ac*-MeAla-Phe-MeLeu-Thr-MeGly-MeLeu-Ser(tBu)-MeIle-Cys*-piperidine] ({CH2CO}-[NMeA]F[NMeL]T[Sar][NMeL]S(tBu)[NMeI]C-Piperidide; thioether N-9): in data set [1], the half-life at 2 uM is over 60 h. Also, in data set [2], the “Hepatic Microsome CLh, int … of NADPH” value is given as 0 ul/min/mg Protein; the “Mouse Hepatic Microsome CLh, int” value was 76.4 ul/min/mg Protein; the microsomal CLint at 1 uM was 76.4 µL/min/mg.

Regarding `CC[C@H](C)[C@H]1C(=O)N[C@H](C(=O)N2CCCCC2)CSCC(=O)N[C@@H](Cc2ccccc2)C(=O)N(C)[C@@H](CC(C)C)C(=O)N[C@@H]([C@@H](C)O)C(=O)N(C)CC(=O)N(C)[C@@H](CC(C)C)C(=O)N[C@@H](COC(C)(C)C)C(=O)N1C` [Compound P-107, Ac*-Phe-MeLeu-Thr-MeGly-MeLeu-Ser(tBu)-MeIle-Cys*-piperidine] ({CH2CO}-F[NMeL]T[Sar][NMeL]S(tBu)[NMeI]C-Piperidide; thioether N-8), the half-life at 2 uM in data set [1] was over 60 h. In addition, in data set [2], the “Hepatic Microsome CLh, int … of NADPH” value turned out to be 10.1 ul/min/mg Protein and the microsomal CLint at 1 uM was 111 µL/min/mg.

On to `CC[C@H](C)[C@H]1C(=O)N[C@H](C(=O)N2CCCCC2)CS(=O)(=O)CC(=O)N(C)[C@@H](C)C(=O)N(C)[C@@H](Cc2ccccc2)C(=O)N(C)[C@@H](CC(C)C)C(=O)N[C@@H]([C@@H](C)O)C(=O)N(C)CC(=O)N(C)[C@@H](CC(C)C)C(=O)N[C@@H](COC(C)(C)C)C(=O)N1C` [Compound P-115, (5S,8S,11S,14S,20S,23S,26S,29R)-8-benzyl-23-(tert-butoxymethyl)-26-((S)-sec-butyl)-14-((R)-1-hydroxyethyl)-11,20-diisobutyl-4,5,7,10,16,19,25-heptamethyl-29-(piperidine-1-carbonyl)-1-thia-4,7,10,13,16,19,22,25,28-nonaazacyclotriacontane-3,6,9,12,15,18,21,24,27-nonone 1,1-dioxide], for which, in data set [2] (Table 8, mouse), the “Hepatic Microsome CLhint Mouse” value was determined as 42.1 ul/min/mg Protein. For the same compound, the “Mouse Hepatic Microsome CLh, int” value in data set [2] was found to be 12.1 ul/min/mg Protein. Moreover, the “Hepatic Microsome CLhint Human” value in data set [3] stood at 61.6 ul/min/mg Protein. Moreover, the “Intestinal Microsome CLg, int Mouse” value in data set [4] (Table 8, mouse) is listed as 21.8 ul/min/mg Protein. The “oxidative metabolic rate relative to the parent thioether, small intestinal microsomes” value in data set [4] (compared with Compound P-112) is on record as “about 0.5 times”.

In the case of `CC(C)C[C@H]1C(=O)N[C@@H](COC(C)(C)C)C(=O)N[C@H](C(=O)N2CCCCC2)CSCC(=O)N(C)[C@@H](Cc2ccccc2)C(=O)N(C)[C@@H](C)C(=O)N(C)[C@@H](Cc2ccccc2)C(=O)N(C)[C@@H](CC(C)C)C(=O)N[C@@H]([C@@H](C)O)C(=O)N(C)CC(=O)N1C` [Compound P-108, Ac*-MePhe-MeAla-MePhe-MeLeu-Thr-MeGly-MeLeu-Ser(tBu)-Cys*-piperidine] ({CH2CO}-[NMeF][NMeA][NMeF][NMeL]T[Sar][NMeL]S(tBu)C-Piperidide; thioether N-9), the half-life at 2 uM in data set [1] is over 60 h. Further, in data set [2], the “Hepatic Microsome CLh, int … of NADPH” value amounted to 5.2 ul/min/mg Protein and the microsomal CLint at 1 uM came to 72.3 µL/min/mg.

With `CC(C)C[C@H]1C(=O)N[C@H](C(=O)N2CCCCC2)CSCC(=O)N(C)[C@@H](Cc2ccccc2)C(=O)N(C)[C@@H](C)C(=O)N[C@@H](Cc2ccccc2)C(=O)N(C)[C@@H](CC(C)C)C(=O)N[C@@H]([C@@H](C)O)C(=O)N(C)CC(=O)N1C` [Compound P-105, Ac*-MePhe-MeAla-Phe-MeLeu-Thr-MeGly-MeLeu-Cys*-piperidine] ({CH2CO}-[NMeF][NMeA]F[NMeL]T[Sar][NMeL]C-Piperidide; thioether N-8), in data set [1], the half-life at 2 uM was over 60 h. Besides, in data set [2], the “Hepatic Microsome CLh, int … of NADPH” value is given as 5.1 ul/min/mg Protein and the microsomal CLint at 1 uM stood at 278 µL/min/mg.

As to `CC(C)C[C@H]1C(=O)N[C@@H](COC(C)(C)C)C(=O)N[C@H](C(=O)N2CCCCC2)CSCC(=O)N(C)[C@@H](C)C(=O)N[C@@H](Cc2ccccc2)C(=O)N(C)[C@@H](CC(C)C)C(=O)N[C@@H]([C@@H](C)O)C(=O)N(C)CC(=O)N1C` [Compound P-106, Ac*-MeAla-Phe-MeLeu-Thr-MeGly-MeLeu-Ser(tBu)-Cys*-piperidine] ({CH2CO}-[NMeA]F[NMeL]T[Sar][NMeL]S(tBu)C-Piperidide; thioether N-8), the half-life at 2 uM in data set [1] is over 60 h. In addition, in data set [2], the “Hepatic Microsome CLh, int … of NADPH” value was found to be 1.9 ul/min/mg Protein and the microsomal CLint at 1 uM was found to be 151 µL/min/mg.

Consider `CC(C)C[C@H]1C(=O)N[C@@H](COC(C)(C)C)C(=O)N[C@H](C(=O)N2CCCCC2)CSCC(=O)N(C)[C@@H](Cc2ccccc2)C(=O)N(C)[C@@H](C)C(=O)N[C@@H](Cc2ccccc2)C(=O)N(C)[C@@H](CC(C)C)C(=O)N[C@@H]([C@@H](C)O)C(=O)N(C)CC(=O)N1C` [Compound P-110, Ac*-MePhe-MeAla-Phe-MeLeu-Thr-MeGly-MeLeu-Ser(tBu)-Cys*-piperidine] ({CH2CO}-[NMeF][NMeA]F[NMeL]T[Sar][NMeL]S(tBu)C-Piperidide; thioether N-9), for which, in data set [1], the half-life at 2 uM was over 60 h. In data set [2], the “Hepatic Microsome CLh, int … of NADPH” value is 6.1 ul/min/mg Protein and the microsomal CLint at 1 uM amounted to 163 µL/min/mg.

As for `CC(C)(C)SSC[C@H](N)C(=O)O[C@H]1[C@@H](O)[C@H](n2cnc3c(N)ncnc32)O[C@@H]1COP(=O)(O)O[C@H]1C[C@H](n2ccc(N)nc2=O)O[C@@H]1COP(=O)(O)O` [Compound 2n-A, (2R)-(2R,3S,4R,5R)-2-((((((2R,3S,5R)-5-(4-amino-2-oxopyrimidin-1(2H)-yl)-2-((phosphonooxy)methyl)tetrahydrofuran-3-yl)oxy)(hydroxy)phosphoryl)oxy)methyl)-5-(6-amino-9H-purin-9-yl)-4-hydroxytetrahydrofuran-3-yl 2-amino-3-(tert-butyldisulfanyl)propanoate], the “% by LC-MS during StBu deprotection” value in data set [5] (room temperature, after 5 minutes) amounted to 51%; in data set [5] (room temperature, after 2 hours), 0%. Also, the “% remaining by LC-MS” value in data set [5] (In AcONa buffer, 1 mM, pH 5, room temperature, 1 hour) is 70%; in data set [5] (In DMSO, 5 mM, pH 4, 0° C., 2.5 days), 58%; in data set [5] (In HEPES buffer, 1 mM, pH 7, room temperature, 1 hour), 30%; in data set [5] (Stored as solid, room temperature, 16 days) it was 64%.
